Results: patent US20230068020A1, “MACROLIDE COMPOUND AND ITS USE OF TREATMENT CHRONIC RESPIRATORY DISEASE” (priority 2020, published 2023)

Columns and labels:
Type in all cases: cell-based
THP-1 cell [1] = assay: Differentiation of monocyte to macrophage in THP-1 cell line; conditions: for EC50: THP-1 differentiate to macrophage, PMA, 96 hrs incubation; for Maximal activation level / Emax: ratio of best effect of compound to that of erythromycin 100 uM, THP-1 differentiation; for Emax: read-out: Maximal activation level
Experimental: The THP-1 cell line was purchased from ATCC (American Type Culture Collection, Manassas, Va.). Cells were maintained in growth medium (RPMI-1640) with supplemented with 10% heat inactivated bovine serum, 100× Glutamax medium and 0.05 mM β-Mercaptoethanol at 37° C. under 5% CO2. Compounds were dissolved in 0.1% DMSO. Erythromycin was used as a positive control.
For the assessment of the effect of compounds of the present invention on differentiation of monocyte to macrophage in THP-1 cell line, cells were collected and centrifuged at 900 rpm for 4 minutes. The cell density was adjusted to 2.5×10^5/mL. cell suspension of 400 μL was added to each well of 48-well plate following the plate layout. PMA 1 mg, a compound can induce monocyte differentiation, was dissolved in 10 mL DMSO to form 100 μg/mL solution and aliquote it into 1 mL per vial. 1 mL solution can be further aliquoted into 10 μL per vial and stored the aliquots at −20° C. Make 10-fold dilution of PMA with DMSO and then 500-fold dilution with complete medium. 50 μL solution were then added to each well of 48-well plate following the plate layout. Erythromycin and compounds of examples at stock concentration of 10 mM was serially diluted at 10-fold in DMSO. 50 μL solution was added to each well of 48-well plate following the plate layout. After 96 hrs incubation at 37° C., 5% CO2, the plate was washed with DPBS for three times to remove non-adherent cells for three times. Complete medium 180 μL and alarmar blue 20 μL was added to each well. The fluorescent intensity was read at excitation 530 nm and emission 590 nm using PerkinElmer Victor3 after 3 hours plate incubation.
The differentiation activity of compounds of Examples is compared to that of 100 μM erythromycin and the results are shown in FIG. 1 and Table 3.

THP-1 cell [2] = assay: Cell viability (LD50) in THP-1 differentiation test
Experimental: The medium lethal dose (LD50) is the dosage of a compound that reduces the cell viability by 50%, and is determined using non-linear logistic regression.

[3] = tested on: IL-8 expression in BEAS-2B cell; assay: LPS induced IL-8 release by BEAS-2B (ELISA); conditions: for Maximum Inhibition: IL-8 expression in BEAS-2B cells, LPS; for IC10: concentration inhibiting IL-8 production on BEAS-2B by 10%, LPS 20 μg/mL
Experimental: The inhibitory effect of compounds of Examples on the IL-8 expression in BEAS-2B cell was tested using the following method. BEAS-2B was purchased from ATCC (American Type Culture Collection, Manassas, Va.). Cells were maintained in growth medium (LHC-9) and cultured at 37° C. under 5% CO2. Compounds were dissolved in 0.1% DMSO. Erythromycin was used as a positive control.
For the assessment of the effect of compounds of Examples on IL-8 expression inhibition in BEAS-2B cell line, cells were plated in 24 well plate at a density of 100,000/mL, in a final volume of 1 mL of assay medium. Cells were incubated at 37° C., 5% CO2 for 1 day. After the incubation, compounds were added at day 2 and LPS was added at day 3. A compound source plate was prepared by triplicate five-point 10-fold or 2-fold serial dilutions in DMSO, beginning at 1 mM (final top concentration of compounds of Examples in the assay was 100 μM and the DMSO was 0.1%). The positive control consisted of cells treated with 100 μM erythromycin and negative control was consisted of 0.1% DMSO treated cells. LPS stock solution at 5 mg/mL was made by dissolving 10 mg of LPS powder into 2 mL of ddH2O and aliquoted to 100 μL per vial. Final concentration of LPS in the assay was […] by making 125-fold dilution of stock solution with medium.
Specific immunoreactivity for IL-8 in culture supernatants were measured by a commercially available ELISA kits (R&D Systems, Inc., Minneapolis, Minn.). Each sample was assayed in duplicates as recommended by the manufacture. The concentration of compounds of Examples inhibiting IL-8 production on BEAS-2B by 10% was estimated from a 4-parametric of the normalized dose response curve. (IC10)

BEAS-2B cell = assay: Cell viability (LD10) in BEAS-2B IL-8 test; conditions: BEAS-2B cell viability
Description: The lethal dose (LD10) is the dosage of a compound that reduces the cell viability by […], and is estimated from non-linear logistic regression.

[4] = dosage that reduces the cell viability by 50%, THP-1

`CC[C@H]1OC(=O)[C@H](C)[C@@H](OC2CC(C)(OC)C(O)C(C)O2)[C@H](C)[C@@H](OC2CC(N(C)C(C)C)CC(C)O2)[C@@]2(C)CC(C)=C(O2)[C@H](C)[C@@H](O)[C@]1(C)O` (stereo partly drawn) [LY101-24] showed an EC50 (THP-1 cell [1]) of 6.8 ± 1.4 µM, a Maximal activation level (THP-1 cell [1]) of 7.0 ± 1.6 and an LD50 (THP-1 cell [2]; [4]) of 56.9 ± 14.0 µM. For the same compound, the “Maximum Inhibition” value [3] was 42%, the IC10 [3] was 10 µM and the LD10 (BEAS-2B cell) was 50 µM.
Work on `CC[C@H]1OC(=O)[C@H](C)[C@@H](O)[C@H](C)[C@@H](OC2CC(N(C)C)CC(C)O2)[C@@](C)(O)C[C@@H](C)/C(=N\OCOCCOC)[C@H](C)[C@@H](O)[C@]1(C)O` (stereo partly drawn) [LY101-40] yielded an EC50 (THP-1 cell [1]; Homo sapiens) of 106 µM, an Emax (THP-1 cell [1]; Homo sapiens) of 180% and an LD50 (THP-1 cell [2]; human) of 100 µM.
`CC[C@H]1OC(=O)[C@H](C)[C@@H](OC2CC(C)(OC)C(O)C(C)O2)[C@H](C)[C@@H](OC2CC(NC)CC(C)O2)[C@@]2(C)CC(C)=C(O2)[C@H](C)[C@@H](O)[C@]1(C)O` (stereo partly drawn) [LY101-6] showed an EC50 (THP-1 cell [1]) of 11.5 ± 3.2 µM, a Maximal activation level (THP-1 cell [1]) of 3.9 ± 0.8 and an LD50 (THP-1 cell [2]; [4]) of 103.2 ± 11.4 µM.
For `CC[C@H]1OC(=O)[C@H](C)[C@@H](OC2CC(C)(OC)C(O)C(C)O2)[C@H](C)[C@@H](OC2CC(N(C)C(C)=O)CC(C)O2)[C@@]2(C)CC(C)=C(O2)[C@H](C)[C@@H](O)[C@]1(C)O` (stereo partly drawn) [LY101-27], the EC50 (THP-1 cell [1]) was 12.2 ± 4.6 µM, the Maximal activation level (THP-1 cell [1]) was 5.3 ± 1.5 and the LD50 (THP-1 cell [2]; [4]) was 121.1 ± 7.8 µM. The “Maximum Inhibition” value [3] was 40%, the IC10 [3] was 10 µM and the LD10 (BEAS-2B cell) was 100 µM.
`CC[C@H]1OC(=O)[C@H](C)[C@@H](OC2CC(C)(OC)C(O)C(C)O2)[C@H](C)[C@@H](OC2CC(N(C)C(C)=O)CC(C)O2)[C@@](C)(O)C[C@@H](C)CN(C)[C@H](C)[C@@H](O)[C@]1(C)O` (stereo partly drawn) [LY101-48] showed an EC50 (THP-1 cell [1]; Homo sapiens) of 18.5 ± 4.2 µM, an Emax (THP-1 cell [1]; Homo sapiens) of 420 ± 110% and an LD50 (THP-1 cell [2]; human) of 111.0 ± 13.6 µM.
